Tested on: IL1RN locus in HEK293T cells
Assay: ChIP-qPCR of FLAG-ABI-P300 and H3K27Ac at the IL1RN locus (dCas9-PYL-HA, FLAG-ABI-P300, IL1RN sgRNAs)
Assay type: cell-based, human
Method: To examine the recruitment of FLAG-ABI-P300, HEK293T cells were co-transfected with IL1RN sgRNAs, dCas9-PYL-HA and FLAG-ABI-P300 plasmids for 24 hours. Cells were then either treated or not treated with 100 μM ABA for another 24 hours before being harvested. Portions of the cell lysates were analyzed by using ChIP (with anti-FLAG antibody) and qPCR assays to quantify the level of FLAG-ABI-P300. […] To determine if the level of H3K27Ac changes in response to the FLAG-ABI-P300 localization, portions of the cell lysates produced in the above experiment were subjected to ChIP (using anti-H3K27Ac antibody) and qPCR assays to quantify the H3K27Ac enrichment.
Human embryonic kidney cell HEK293T (American Type Culture Collection, Manassas, Va.) was cultured in Dulbecco's modified Eagle's medium (DMEM) (Gibco) with 10% FBS (Atlanta Biologicals), 1× GlutaMax (Gibco, Thermo Fisher Scientific, Inc., Waltham, Mass.), and 1× penicillin/streptomycin (Pen/Strep; Gibco, Thermo Fisher Scientific, Inc., Waltham, Mass.). Cells (100,000/ml) were plated in 24-well or 10-cm cell culture plate the day before transfection. For each well of 24-well plate transfection, 500 ng of dCas9-PYL-HA, 420 ng of FLAG-ABI-P300, and a total amount of 200-ng mix of gRNAs, with a 50-ng per each gRNA, were mixed with 50×(v/w) Opti-MEM (Gibco, Thermo Fisher Scientific, Inc., Waltham, Mass.), then incubate with the same volume of 3 μg PEI-Opti-MEM solution for 20 minutes at room temperature. Then, 100 μL of PEI-combined plasmids were added to every single well of 24-well plate and cultured for 24 hours before experiments were performed. For a 10 cm plate, 1 mL of PEI-combined plasmids were needed. After six hours transfection, cells were washed and incubated for another 1-72 hours before experiments were performed.
ChIP protocol was optimized from the method in Molecular Cloning, Fourth edition (Cold Spring Harbor Laboratory Press, 2012). In brief, cells cultured in a 10-cm plate were fixed with 1 mL of cross-linking buffer (0.1 M NaCl, 1 mM EDTA, 0.5 mM EGTA, 50 mM HEPES and 11% formaldehyde), and shaken in room temperature for 15 minutes. Then 1.1 mL of 1.25 M glycine was added to the solution to stop crosslinking. After washing three times in ice cold PBS, cells were scraped and suspended in 10 mL of lysis buffer (50 mM HEPES, 140 mM NaCl, 1 mM EDTA, 10% Glycerol, 0.5% NP40, 0.25% Triton X-100), and rocked at 4° C. for 10 minutes. Cells were centrifuged at 1,000×g for 10 minutes and were resuspended in protein extraction buffer (200 mM NaCl, 1 mM EDTA, 0.5 mM EGTA, 10 mM Tris). Nuclei were pelleted by centrifuging at 1,000×g for 15 minutes at 4° C., resuspended in 2 mL of chromatin extraction buffer (1 mM EDTA, 0.5 mM EGTA, 10 mM Tris), and divided into six sonication tubes. Then, the samples were sonicated for 24 cycles at a 30 seconds on/30 seconds off protocol. Then samples were moved to a new centrifuge tube and insoluble debris were removed by centrifuge at 2,000×g for 20 minutes at 4° C. 10% volume of samples were stored at −80° C. as 10% input control. […] Then, sample-bound beads were washed eight times with RIPA buffer (50 mM HEPES, 1 mM EDTA, 1% NP40, 0.7% DOC, 0.5 M LiCl, 1× protease inhibitor complete cocktail), and finally re-suspended in TE (pH 8.0) buffer to wash. Then TE buffer was removed completely, 50 μL of elution buffer (10 mM Tris, 1 mM EDTA, 1% SDS) was added and the samples were incubated for 10 minutes at 65° C. and rocked every two minutes. The liquid was collected, 120 μL of elution buffer was added, and the samples were incubated at 65° C. overnight. Samples of 10% input were incubated with […] elution buffer at 65° C. overnight, too. To remove histones, washing buffer (140 μL of TE buffer, 3 μL of 20 mg/ml glycogen and 7 μL of 10 mg/ml Proteinase K) was added and incubated two hours at 37° C. Then ChIP samples were purified with phenol:chloroform:isoamyl alcohol (25:24:1) twice, then purified aqueous in chloroform. […]

[1] = IL1RN locus, time course after ABA addition

SMILES: CC1=CC(=O)CC(C)(C)[C@@]1(O)/C=C/C(C)=C\C(=O)O [ABA, abscisic acid]
- FLAG-ABI-P300 level at the IL1RN locus (100 μM ABA for 24 hours vs not treated, anti-FLAG ChIP): increase in FLAG-ABI-P300 level
- H3K27Ac levels at the IL1RN locus (24 h after ABA addition (100 μM) vs not treated, anti-H3K27Ac ChIP): H3K27Ac levels increase
- stability of H3K27Ac at the IL1RN locus after ABA removal (ABA for 12, 24 or 48 hours, then washed): the longer cells were treated with ABA, the slower H3K27Ac was removed after washing
- FLAG-ABI-P300 level at the IL1RN locus after washing to remove ABA (ABA for 12, 24 or 48 hours, then washed with non-ABA media): rapidly decreases to a near background level within one hour following washing
- time at which the level of H3K27Ac begins to rise [1]: one hour after ABA addition
- time until which H3K27Ac continues to increase [1]: 48 h
- time at which FLAG-ABI-P300 reaches a maximal level at the IL1RN locus (time course after ABA addition): 12 h
- time of FLAG-ABI-P300 recruitment to the IL1RN locus after ABA addition (time course after ABA addition): Within one hour
